The source of these data is a melting point compilation (Tetko et al.).

As to `O=C(NCCO)c1ccc([N+](=O)[O-])cc1Cl`, the melting point (in general, the temperature, or range, at which the solid turns liquid) fell in the range of 173 to 175 °C. Then `CC1C(O)CC2CC1C2(C)C` (centres undefined), with 51 to 53 °C; and `CC(C(=O)O)C(C)(C)C` (centres undefined), with 34 to 36 °C; and `COc1ccc(C=O)cc1OCC1CC1`, with 68 to 70 °C. Then `O=C(O)C1CCN(c2ccc(Cl)cc2)C1=O` (centres undefined), with 158 to 160 °C; and `NC(=NO)c1ccc(N2CCC(O)CC2)cc1`, with 169 to 171 °C.

`O=C(O)CNC(=O)CC1CCCC1` returned a melting point of 98 to 100 °C.

Molecule `Cc1ccn(-c2cccc(C(=O)O)c2)n1` registered a melting point of 198 to 200 °C. Then `CC(C)(C)OC(=O)NCC1CCC(C(=O)O)CC1` (centres undefined), with 132 to 134 °C. For `Nc1ncnc(Cl)c1C=O` the value was 159 to 161 °C. `Cc1ccc(N2CCC(N)C2=O)cc1` (centres undefined) showed a melting point of 97 to 99 °C. `Cc1ccc(I)c(O)c1` showed a melting point of 62 to 64 °C. Then `CC1CC(C)CN(C(=O)c2ccccc2N)C1` (centres undefined), with 97 to 99 °C; and `O=Cc1cc(-c2cccs2)cs1`, with 107 to 109 °C.

In turn, `Cc1ccc(C(=O)NCCN)cc1F` returned a melting point of 71 to 73 °C. For `Cc1nc(O)ccc1C(=O)O` the value was 329 to 331 °C; for `Cc1noc(C2(C)CCN(C(=O)OC(C)(C)C)CC2)n1`, 80 to 82 °C; for `CCc1nnsc1C(=O)NC1CCCCC1`, 80 to 82 °C. Then `CCOC(=O)c1c(-c2ccccc2Cl)csc1N`, with 65 to 73 °C; and `NNC(=O)CSc1ccccc1O`, with 134 to 136 °C. `N#Cc1ccccc1-c1ccc(CBr)cc1` returned a melting point of 127 to 129 °C.

Molecule `CSCCC(NC(=O)c1ccc(Cl)cc1Cl)C(=O)O` (centres undefined) came in with a melting point of 79 to 81 °C. Then `N#CCC(=O)NN1CCCCC1=O`, with 146 to 148 °C; and `O=C(Nc1ccccc1C(=O)O)c1ccc(Oc2ccccc2)cc1`, with 189 to 191 °C. Then `COc1ccccc1C(O)c1ccccn1` (centres undefined), with 57 to 59 °C; and `Cc1ccc(S(=O)(=O)Nc2ccccc2C(=O)O)cc1`, with 231 to 233 °C.

Turning to `CC1=C(C)C(=O)NC1=O`, the melting point lay within 113 to 115 °C. With `COC(=O)C(O)c1cccc(O)c1` (centres undefined), the melting point was 124 to 126 °C. Then `O=C1c2ccccc2C(=O)N1CC1(CO)CCCC1`, with 83 to 85 °C. Then `CC(N)c1ccc(NC(N)=O)cc1` (centres undefined), with 132 to 134 °C; and `CCC(=O)Nc1cccc(C#N)c1`, with 84 to 86 °C. Then `Cc1cc(-c2csc(N)n2)c(C)s1`, with 72 to 74 °C; and `Cc1nc(Cl)nc(C)c1Cc1ccccc1`, with 42 to 44 °C.

The molecule `Nc1cc(=O)[nH]n1-c1ccccc1` showed a melting point of 109 to 111 °C.

With `NC(=NO)c1ccc(OCc2ccccc2)cc1`, the melting point is 167 to 169 °C. `O=Cc1ccc(N2CCC(O)CC2)o1` returned a melting point of 103 to 105 °C. Then `CN(C)C(N)=NC(=N)N`, with 223 to 226 °C; and `COC(=O)c1cc(S(=O)(=O)N2CCOCC2)ccc1Cl`, with 74 to 76 °C. Then `COc1ccc(C2CCCCC(O)C2)cc1` (centres undefined), with 49 to 51 °C; and `Cc1nc(N)n(-c2ccccc2)n1`, with 131 to 133 °C. Then `COCc1ccc(CNC(=O)CCl)cc1`, with 83 to 85 °C; and `COc1cc2nc(N)sc2cc1OC`, with 224 to 226 °C; and `CCCCc1nc(-c2cccc(O)c2)no1`, with 51 to 53 °C. Molecule `CCOc1ccc(S(=O)(=O)N2CCNCC2)cc1OCC` showed a melting point of 132 to 134 °C. `O=C(O)C1CCCN(S(=O)(=O)c2ccccc2)C1` (centres undefined) returned a melting point of 121 to 123 °C.

In turn, `OCc1ccc(N2CCN(c3ncccn3)CC2)c(F)c1` yielded a melting point of 114 to 116 °C. Then `Oc1nc(S)nc2c1CCC2`, with 288 to 290 °C; and `O=C(Cc1cccc2ccccc12)NO`, with 179 to 181 °C. Then `NC(=NOC(=O)CCCCl)c1cccs1`, with 144 to 146 °C.
